In US6358885B1, “Substituted phenylheterocyclic herbicides” (Mississippi State University, priority 1992, dated 2002):

What was measured:
barnyardgrass = assay: Test B preemergence/postemergence greenhouse plant response rating 0 to 10; type: in vivo, Echinochloa crus-galli; conditions: for Plant response rating, Barnyardgrass: 0 to 10 scale
In short: (§1)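 Planted seeds are treated preemergence with compound dissolved in a non-phytotoxic solvent, while postemergence applications go onto plants of two to eighteen cm. Plants stay in the greenhouse twelve to sixteen days and are then rated visually relative to controls.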

blackgrass = assay: as above; type: in vivo, Alopecurus myosuroides; conditions: for Plant response rating, Blackgrass: 0 to 10 scale
In short: as §1

wild oat = assay: Test C preemergence/postemergence greenhouse plant response rating 0 to 100; type: in vivo, Avena fatua; conditions: for Plant response rating, Wild oat: 0 to 100 scale
Excerpt: (§2) The compounds evaluated in this test were formulated in a non-phytoxic solvent and applied to the soil surface before plant seedlings emerged (preemergence application), to water that covered the soil surface (flood application), and to plants that were in the one-to-four leaf stage (postemergence application). A sandy loam soil was used for the preemergence and postemergence tests, while a silt loam soil was used in the flood test. Water depth was approximately 2.5 cm for the flood test and was maintained at this level for the duration of the test. Plant species in the preemergence and postemergence tests consisted of barley (Hordeum vulgare), bedstraw (Galium aparine), blackgrass (Alopecurus myosuroides), chickweed (Stellaria media), corn (Zea mays), cotton (Gossypium hirsutum), crabgrass (Digitaria sanguinalis), downy brome (Bromus tectorum), giant foxtail (Setaria faberii), lambsquarters (Chenopodium album), morningglory (Ipomoea hederacea), pigweed ([…]), rape (Brassica napus), ryegrass (Lolium multiflorum), sorghum (Sorghum bicolor), soybean (Glycine max), speedwell (Veronica persica), sugar beet (Beta vulgaris), velvetleaf (Abutilon theophrasti), wheat (Triticum aestivum), wild buckwheat (Polygonum convolvulus), and wild oat (Avena fatua). All plant species were planted one day before application of the compound for the preemergence portion-of this test. Plantings of these species were adjusted to produce plants of appropriate size for the post-emergence portion of the test. […] All plant species were grown using normal greenhouse practices. Visual evaluations of injury expressed on treated plants, when compared to untreated controls, were recorded approximately fourteen to twenty one days after application of the test compound. […] A dash (-) response means no test result.

velvetleaf = assay: Test B preemergence/postemergence greenhouse plant response rating 0 to 10; type: in vivo, Abutilon theophrasti; conditions: 0 to 10 scale
In short: as §1

crabgrass = assay: Test C preemergence/postemergence greenhouse plant response rating 0 to 100; type: in vivo, Digitaria sanguinalis; conditions: for Plant response rating, Crabgrass: 0 to 100 scale
Excerpt: as §2

rice = assay: Test C flood test plant response rating 0 to 100; type: in vivo, Oryza sativa; conditions: for Plant response rating Rice Japonica: flood test species listed under POSTEMERGENCE, 0 to 100 scale
Excerpt: as §2

morningglory = assay: Test C preemergence/postemergence greenhouse plant response rating 0 to 100; type: in vivo, Ipomoea hederacea; conditions: for Plant response rating, Morningglory: 0 to 100 scale
Excerpt: as §2

chickweed = assay: Test B preemergence/postemergence greenhouse plant response rating 0 to 10; type: in vivo, Stellaria media; conditions: for Plant response rating, Chickweed: 0 to 10 scale
In short: as §1

ryegrass = assay: Test C preemergence/postemergence greenhouse plant response rating 0 to 100; type: in vivo, Lolium multiflorum; conditions: for Plant response rating Ryegrass: 0 to 100 scale
Excerpt: as §2

corn [1] = assay: as above; type: in vivo, Zea mays; conditions: for Plant response rating, Corn: 0 to 100 scale
Excerpt: as §2

corn [2] = assay: Test B preemergence/postemergence greenhouse plant response rating 0 to 10; type: in vivo, Zea mays; conditions: for Plant response rating, Corn: 0 to 10 scale
In short: as §1

sorghum = assay: as above; type: in vivo, Sorghum bicolor; conditions: 0 to 10 scale
In short: as §1

purple nutsedge = assay: as above; type: in vivo, Cyperus rotundus; conditions: 0 to 10 scale
In short: as §1

bedstraw = assay: Test C preemergence/postemergence greenhouse plant response rating 0 to 100; type: in vivo, Galium aparine; conditions: for Plant response rating, Bedstraw: 0 to 100 scale
Excerpt: as §2

rape = assay: as above; type: in vivo, Brassica napus; conditions: for Plant response rating, Rape: 0 to 100 scale
Excerpt: as §2

sugar beet = assay: Test B preemergence/postemergence greenhouse plant response rating 0 to 10; type: in vivo, Beta vulgaris; conditions: 0 to 10 scale
In short: as §1

wheat = assay: Test C preemergence/postemergence greenhouse plant response rating 0 to 100; type: in vivo, Triticum aestivum; conditions: for Plant response rating, Wheat: 0 to 100 scale
Excerpt: as §2

barley = assay: Test B preemergence/postemergence greenhouse plant response rating 0 to 10; type: in vivo, Hordeum vulgare; conditions: for Plant response rating, Barley: 0 to 10 scale
In short: as §1

C#CCOc1cc(-c2nn3c(c2Br)CCCC3)c(F)cc1Cl [Compound 26]
Plant response rating (0 to 10 scale), Barnyardgrass (barnyardgrass; POSTEMERGENCE, Rate 50 g/ha): 5
Plant response rating, Barnyardgrass (barnyardgrass; POSTEMERGENCE, Rate 200 g/ha): 7
Plant response rating, Barnyardgrass (barnyardgrass; PREEMERGENCE, Rate 50 g/ha): 2
Plant response rating, Barnyardgrass (barnyardgrass; Rate 200 g/ha, PREEMERGENCE): 7
Plant response rating (0 to 10 scale), Blackgrass (blackgrass; POSTEMERGENCE, Rate 50 g/ha): 4
Plant response rating, Blackgrass (blackgrass; POSTEMERGENCE, Rate 200 g/ha): 5
Plant response rating, Blackgrass (blackgrass; PREEMERGENCE, Rate 50 g/ha): 4
Plant response rating, Blackgrass (blackgrass; Rate 200 g/ha, PREEMERGENCE): 6
Plant response rating, Wild oat (wild oat; POSTEMERGENCE, 62 g/ha): 30
Plant response rating, Wild oat (wild oat; POSTEMERGENCE, 250 g/ha): 50
Plant response rating (0 to 100), Wild oat (wild oat; POSTEMERGENCE, Rate 4 g/ha): 20
Plant response rating, Wild oat (wild oat; PREEMERGENCE, 250 g/ha): 30
Plant response rating (0 to 100), Wild oat (wild oat; PREEMERGENCE, Rate 4 g/ha): 0
Plant response rating (0 to 100), Wild oat (wild oat; Rate 16 g/ha, POSTEMERGENCE): 30
Plant response rating (0 to 100), Wild oat (wild oat; Rate 16 g/ha, PREEMERGENCE): 0
Plant response rating, Velvetleaf (velvetleaf; POSTEMERGENCE, Rate 50 g/ha): 10
Plant response rating, Velvetleaf (velvetleaf; POSTEMERGENCE, Rate 200 g/ha): 10
Plant response rating, Velvetleaf (velvetleaf; PREEMERGENCE, Rate 50 g/ha): 10
Plant response rating, Velvetleaf (velvetleaf; Rate 200 g/ha, PREEMERGENCE): 10
Plant response rating, Crabgrass (crabgrass; POSTEMERGENCE, 62 g/ha): 20
Plant response rating, Crabgrass (crabgrass; POSTEMERGENCE, 250 g/ha): 40
Plant response rating (0 to 100), Crabgrass (crabgrass; POSTEMERGENCE, Rate 4 g/ha): 0
Plant response rating, Crabgrass (crabgrass; PREEMERGENCE, 62 g/ha): 20
Plant response rating, Crabgrass (crabgrass; PREEMERGENCE, 250 g/ha): 60
Plant response rating (0 to 100), Crabgrass (crabgrass; PREEMERGENCE, Rate 4 g/ha): 0
Plant response rating (0 to 100), Crabgrass (crabgrass; Rate 16 g/ha, POSTEMERGENCE): 0
Plant response rating (0 to 100), Crabgrass (crabgrass; Rate 16 g/ha, PREEMERGENCE): 0
Plant response rating (0 to 100), Rice Japonica (rice; POSTEMERGENCE section, flood test, Rate 4 g/ha): 40
Plant response rating (0 to 100), Rice Japonica (rice; Rate 16 g/ha, under POSTEMERGENCE head (flood test species)): 65
Plant response rating Rice Japonica (rice; 62 g/ha): 80
Plant response rating Rice Japonica (rice; 250 g/ha): 85
Plant response rating, Morningglory (morningglory; POSTEMERGENCE, 62 g/ha): 70
Plant response rating, Morningglory (morningglory; POSTEMERGENCE, 250 g/ha): 100
Plant response rating (0 to 100), Morningglory (morningglory; POSTEMERGENCE, Rate 4 g/ha): 50
Plant response rating, Morningglory (morningglory; PREEMERGENCE, 62 g/ha): 20
Plant response rating, Morningglory (morningglory; PREEMERGENCE, 250 g/ha): 100
Plant response rating (0 to 100), Morningglory (morningglory; PREEMERGENCE, Rate 4 g/ha): 0
Plant response rating (0 to 100), Morningglory (morningglory; Rate 16 g/ha, POSTEMERGENCE): 70
Plant response rating (0 to 100), Morningglory (morningglory; Rate 16 g/ha, PREEMERGENCE): 0
Plant response rating (0 to 10 scale), Chickweed (chickweed; POSTEMERGENCE, Rate 50 g/ha): 10
Plant response rating, Chickweed (chickweed; POSTEMERGENCE, Rate 200 g/ha): 10
Plant response rating, Chickweed (chickweed; PREEMERGENCE, Rate 50 g/ha): 10
Plant response rating, Chickweed (chickweed; Rate 200 g/ha, PREEMERGENCE): 10
Plant response rating Ryegrass (ryegrass; POSTEMERGENCE, 62 g/ha): 30
Plant response rating Ryegrass (ryegrass; POSTEMERGENCE, 250 g/ha): 50
Plant response rating (0 to 100), Ryegrass (ryegrass; POSTEMERGENCE, Rate 4 g/ha): 20
Plant response rating Ryegrass (ryegrass; PREEMERGENCE, 62 g/ha): 0
Plant response rating Ryegrass (ryegrass; PREEMERGENCE, 250 g/ha): 20
Plant response rating (0 to 100), Ryegrass (ryegrass; PREEMERGENCE, Rate 4 g/ha): 0
Plant response rating (0 to 100), Ryegrass (ryegrass; Rate 16 g/ha, POSTEMERGENCE): 20
Plant response rating (0 to 100), Ryegrass (ryegrass; Rate 16 g/ha, PREEMERGENCE): 0
Plant response rating, Corn (corn [1]; POSTEMERGENCE, 62 g/ha): 50
Plant response rating, Corn (corn [1]; POSTEMERGENCE, 250 g/ha): 50
Plant response rating, Corn (corn [1]; PREEMERGENCE, 62 g/ha): 0
Plant response rating, Corn (corn [1]; PREEMERGENCE, 250 g/ha): 30
Plant response rating (0 to 100), Corn (corn [1]; PREEMERGENCE, Rate 4 g/ha): 0
Plant response rating (0 to 100), Corn (corn [1]; Rate 4 g/ha, POSTEMERGENCE): 30
Plant response rating (0 to 100), Corn (corn [1]; Rate 16 g/ha, POSTEMERGENCE): 40
Plant response rating (0 to 100), Corn (corn [1]; Rate 16 g/ha, PREEMERGENCE): 0
Plant response rating (0 to 10 scale), Corn (corn [2]; POSTEMERGENCE, Rate 50 g/ha): 5
Plant response rating, Corn (corn [2]; POSTEMERGENCE, Rate 200 g/ha): 5
Plant response rating, Corn (corn [2]; PREEMERGENCE, Rate 50 g/ha): 4
Plant response rating, Corn (corn [2]; Rate 200 g/ha, PREEMERGENCE): 6
Plant response rating, Sorghum (sorghum; POSTEMERGENCE, Rate 50 g/ha): 5
Plant response rating, Sorghum (sorghum; POSTEMERGENCE, Rate 200 g/ha): 6
Plant response rating, Sorghum (sorghum; PREEMERGENCE, Rate 50 g/ha): 2
Plant response rating, Sorghum (sorghum; Rate 200 g/ha, PREEMERGENCE): 4
Plant response rating, Nutsedge (purple nutsedge; POSTEMERGENCE, Rate 200 g/ha): 4
Plant response rating, Nutsedge (purple nutsedge; PREEMERGENCE, Rate 50 g/ha): 0
Plant response rating, Nutsedge (purple nutsedge; Rate 200 g/ha, PREEMERGENCE): 0
Plant response rating, Bedstraw (bedstraw; POSTEMERGENCE, 62 g/ha): 100
Plant response rating, Bedstraw (bedstraw; POSTEMERGENCE, 250 g/ha): 100
Plant response rating, Bedstraw (bedstraw; PREEMERGENCE, 62 g/ha): 100
Plant response rating, Bedstraw (bedstraw; PREEMERGENCE, 250 g/ha): 100
Plant response rating (0 to 100), Bedstraw (bedstraw; PREEMERGENCE, Rate 4 g/ha): 20
Plant response rating (0 to 100), Bedstraw (bedstraw; Rate 4 g/ha, POSTEMERGENCE): 70
Plant response rating (0 to 100), Bedstraw (bedstraw; Rate 16 g/ha, POSTEMERGENCE): 80
Plant response rating (0 to 100), Bedstraw (bedstraw; Rate 16 g/ha, PREEMERGENCE): 60
Plant response rating, Rape (rape; POSTEMERGENCE, 62 g/ha): 100
Plant response rating, Rape (rape; POSTEMERGENCE, 250 g/ha): 100
Plant response rating (0 to 100), Rape (rape; POSTEMERGENCE, Rate 4 g/ha): 80
Plant response rating, Rape (rape; PREEMERGENCE, 62 g/ha): 20
Plant response rating, Rape (rape; PREEMERGENCE, 250 g/ha): 30
Plant response rating (0 to 100), Rape (rape; PREEMERGENCE, Rate 4 g/ha): 0
Plant response rating (0 to 100), Rape (rape; Rate 16 g/ha, POSTEMERGENCE): 90
Plant response rating (0 to 100), Rape (rape; Rate 16 g/ha, PREEMERGENCE): 0
Plant response rating, Sugar beet (sugar beet; POSTEMERGENCE, Rate 50 g/ha): 10
Plant response rating, Sugar beet (sugar beet; POSTEMERGENCE, Rate 200 g/ha): 10
Plant response rating, Sugar beet (sugar beet; PREEMERGENCE, Rate 50 g/ha): 9
Plant response rating, Sugar beet (sugar beet; Rate 200 g/ha, PREEMERGENCE): 10
Plant response rating, Wheat (wheat; POSTEMERGENCE, 62 g/ha): 40
Plant response rating, Wheat (wheat; POSTEMERGENCE, 250 g/ha): 60
Plant response rating (0 to 100), Wheat (wheat; POSTEMERGENCE, Rate 4 g/ha): 20
Plant response rating, Wheat (wheat; PREEMERGENCE, 250 g/ha): 10
Plant response rating (0 to 100), Wheat (wheat; PREEMERGENCE, Rate 4 g/ha): 0
Plant response rating (0 to 100), Wheat (wheat; Rate 16 g/ha, POSTEMERGENCE): 20
Plant response rating (0 to 100), Wheat (wheat; Rate 16 g/ha, PREEMERGENCE): 0
Plant response rating (0 to 10 scale), Barley (barley; POSTEMERGENCE, Rate 50 g/ha): 4
Plant response rating, Barley (barley; POSTEMERGENCE, Rate 200 g/ha): 6
Plant response rating, Barley (barley; PREEMERGENCE, Rate 50 g/ha): 0
Plant response rating, Barley (barley; Rate 200 g/ha, PREEMERGENCE): 1
